According to PubChem BioAssay AID549 (SRMLSC, 2006):
Calls of active or inactive are those of the source.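 The calls were made as follows: active = clearly stronger inhibition of phosphomevalonate kinase than of the coupling enzymes alone in a parallel counterscreen; inactive = the rest.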

The molecules below were run against phosphomevalonate kinase (Streptococcus pneumoniae D39) (assay: S. pneumoniae PMK inhibitor potency, dose response, biochemical, mevalonate pathway, coupling enzyme counter-screen (AID 549)). Conditions: PK/LDH coupled NADH absorbance 340 nm.
With `CCOc1ccc2[nH]c(=O)c(CN(CCO)C(=O)c3ccc(Br)cc3)cc2c1` the outcome was “inactive”. With `CN(C(=O)c1cnccn1)c1nnc(-c2cccnc2)s1` the outcome was “inactive”. In the case of `O=C(CSc1nnc(COc2ccccc2)n1-c1ccccc1)c1cccs1`, the outcome is reported as “inactive”. In the case of `O=c1cc(O)c2c(=O)[nH]c(=O)n(-c3ccccc3)c2[nH]1`, the outcome is reported as “inactive”. For `CCNC(=O)CN(c1ccc(C)cc1)S(=O)(=O)c1ccc(SC)cc1`, the outcome was “inactive”. For `O=C(c1n[nH]c(=O)c2ccccc12)N1CCN(C2c3ccccc3-c3ccccc32)CC1`, the outcome was “inactive”. With `O=C(NC1CCCCC1)C1CC(=O)N(c2ccc(Cl)cc2)C1` (stereo not drawn) the outcome was “inactive”. In the case of `Cc1oc2c(O)c(O)ccc2c(=O)c1-c1ccccc1`, the outcome is reported as “inactive”. For `CCOCCCNC(=O)C1CCN(S(=O)(=O)CC)CC1`, the outcome was “inactive”. With `O=C(Cc1cn2ccsc2n1)OCc1nc2ccccc2s1` the outcome was “inactive”. With `CCN=c1sc(C(=O)NCCc2ccccc2)cc(=O)n1CC` the outcome was “inactive”. In the case of `CCOC(=O)N1CCC(NC(=O)CCc2cn(C)c3ccccc23)CC1`, the outcome is reported as “inactive”. With `C[C@]12CC[C@@H]3c4ccc(OS(=O)(=O)O)cc4CC[C@H]3[C@@H]1CCC2=O` the outcome was “inactive”. `O=C(CCN1C(=O)c2ccccc2C1=O)NC1=NCCS1` was tested, and the outcome was “inactive”. `Cc1cc(NCCCN2CCOCC2)n2nc(C)c(-c3ccc(F)cc3)c2n1` was tested, and the outcome was “inactive”. `COc1cccc(OC)c1OCC(O)CN1CCN(c2ccccc2)CC1` (stereo not drawn) was tested, and the outcome was “inactive”. In the case of `O=C(NC1CC1)c1ccc2c(c1)ncn2C1CCCC1`, the outcome is reported as “inactive”. For `COc1cc2[nH]c(=O)n(CCC(=O)NC3CCN(Cc4ccccc4)CC3)c(=O)c2cc1OC`, the outcome was “inactive”. With `COc1ccccc1CNC(=O)C1CCN(c2nc3ccccc3o2)CC1` the outcome was “inactive”. With `Cc1ccc(-c2nnn(CC(=O)N(CC(=O)NCC3CCCO3)c3ccc(F)c(Cl)c3)n2)o1` (stereo not drawn) the outcome was “inactive”. In the case of `O=C(O)C1=C(C(=O)Nc2ccc(F)c(Cl)c2)CCCC1`, the outcome is reported as “inactive”. `Cc1ccc(Cl)cc1N1CCN(Cc2nnnn2C2CCCCC2)CC1` was tested, and the outcome was “inactive”. For `CCOC(=O)c1ccccc1NCN1C(=O)CSC1=O`, the outcome was “inactive”. In the case of `COc1ccccc1C(c1nnnn1C(C)(C)C)N1CCN(Cc2ccncc2)CC1` (stereo not drawn), the outcome is reported as “inactive”. In the case of `CCOC(=O)C(CCc1nnc(N)s1)C(=O)OCC`, the outcome is reported as “inactive”. For `CCOc1ccc(-c2nnc(SCC(=O)N3CCN(c4ccccc4)CC3)o2)cc1`, the outcome was “inactive”. With `CCOc1cc(N2CCOCC2)c(OCC)cc1NC(=O)Cc1ccc(OC)c(OC)c1` the outcome was “inactive”. For `Cc1csc(NC(=O)C2CCC(C)(C(=O)O)C2(C)C)n1` (stereo not drawn), the outcome was “inactive”. In the case of `CCC1Oc2ccc(C)cc2N(CC(=O)NCCN2CCCCCC2)C1=O` (stereo not drawn), the outcome is reported as “inactive”. `c1ccc(NC(=NCc2ccco2)c2ccccc2)cc1` was tested, and the outcome was “inactive”. In the case of `CCOC(=O)C1CCN(C(=O)C2CCN(S(=O)(=O)N3CCCC3)CC2)CC1`, the outcome is reported as “inactive”. For `CC(C)OC(=O)CCC1(C(=O)O)CCC(=O)NC1` (stereo not drawn), the outcome was “inactive”. In the case of `COc1ccc(C(c2nnnn2CC2CCCO2)N2CCN(c3ccccc3)CC2)cc1` (stereo not drawn), the outcome is reported as “inactive”. `CC(=O)Nc1c(O)n(C)c2ccccc12` was tested, and the outcome was “inactive”. `COCC(=O)N(C)c1nnc(-c2cnc(C)cn2)s1` was tested, and the outcome was “inactive”. For `CCOc1ccccc1-n1c(SCC(=O)Nc2ccc(CC)cc2)nc2n[nH]c(C)c2c1=N`, the outcome was “inactive”. In the case of `COc1cccc2cc(C(=O)N3CCN(c4ccccc4F)CC3)c(=O)oc12`, the outcome is reported as “inactive”. In the case of `OC1CCCN(Cc2ccc3c(c2)Cc2ccccc2-3)C1` (stereo not drawn), the outcome is reported as “inactive”. In the case of `COc1ccc(Br)cc1CNC(=O)C1CCN(S(=O)(=O)N2CCCC2)CC1`, the outcome is reported as “inactive”. `O=C(NCCCN1CCN(Cc2ccccc2)CC1)C1CCN(S(=O)(=O)N2CCCC2)CC1` was tested, and the outcome was “inactive”. `Cc1nc2ccc3nc(NC(=O)c4ccco4)sc3c2s1` was tested, and the outcome was “inactive”. For `CCOCCCN1C(=O)CN(C2CCCCC2)C(=O)C1c1ccc(OCC)c(OC)c1` (stereo not drawn), the outcome was “inactive”. `COCCNC(=O)C1CCCN(c2nn3c(=O)cc(C)nc3s2)C1` (stereo not drawn) was tested, and the outcome was “inactive”. For `CC(C)(C)NS(=O)(=O)c1ccc(NS(=O)(=O)c2ccc(F)cc2)cc1`, the outcome was “inactive”. For `COC(=O)c1ccccc1S(=O)(=O)N(Cc1cc2ccc(OC)cc2[nH]c1=O)CC1CCCO1` (stereo not drawn), the outcome was “inactive”. In the case of `O=c1oc2c3c4c(cc2cc1-c1nc2ccccc2[nH]1)CCCN4CCC3`, the outcome is reported as “inactive”. For `CCN(CC)CCSc1nc(O)c(C(C)C)c(=O)[nH]1`, the outcome was “inactive”. With `CC(C)OC(=O)CN1C(=O)c2ccccc2C1=O` the outcome was “inactive”. In the case of `COc1ccc(S(=O)(=O)Nc2nnc(C)s2)cc1`, the outcome is reported as “inactive”. `c1ccc(CCn2nnnc2C(c2cccs2)N2CCOCC2)cc1` (stereo not drawn) was tested, and the outcome was “inactive”. In the case of `COc1ccc(C2C3=C(OC(C)=O)c4ccccc4C3=Nc3c2c(=O)n(C)c(=O)n3C)cc1` (stereo not drawn), the outcome is reported as “inactive”. For `CCCC(=O)Nc1cccc(NC(=O)CN2CCN(c3ccccc3OC)CC2)c1`, the outcome was “inactive”. With `CC(C)COC(=O)NCC12C=CC(O1)C1C(=O)N(c3ccc(Cl)cc3)C(=O)C12` (stereo not drawn) the outcome was “inactive”. With `CN(C)c1ccc(CNCCC2(O)CCOC(C)(C)C2)cc1` (stereo not drawn) the outcome was “inactive”. In the case of `CC(=O)NC1N=C(C)N(c2ccccc2)C1=O` (stereo not drawn), the outcome is reported as “inactive”. For `Cc1c2cnn(CC(=O)N3CCC4(CC3)OCCO4)c(=O)c2c(C)n1Cc1ccc(F)cc1`, the outcome was “inactive”. With `O=C(CNCC1CCCO1)Nc1ccccc1N1CCOCC1` (stereo not drawn) the outcome was “inactive”. `CCOC(=O)c1cnc(SCC(=O)N2CCN(C(=O)c3ccco3)CC2)nc1N` was tested, and the outcome was “inactive”. For `CN1CCN(S(=O)(=O)c2cccc(S(=O)(=O)c3ccc(Cl)c(Cl)c3)c2)CC1`, the outcome was “inactive”. For `Cc1sc2ncnc(NCC(c3ccco3)N(C)C)c2c1C` (stereo not drawn), the outcome was “inactive”. `CCn1c(SC(=O)NC2CCCCC2)nnc1-c1cccs1` was tested, and the outcome was “inactive”. For `CCOc1ccc2[nH]c(=O)c(C(c3nnnn3CC3CCCO3)N3CCc4ccccc4C3)cc2c1` (stereo not drawn), the outcome was “inactive”. With `CCOC(=O)C1CCCN(C(=O)C2CCCN(S(C)(=O)=O)C2)C1` (stereo not drawn) the outcome was “inactive”. For `Cc1nonc1NC(=O)CSc1ccc(-c2ccccc2)nn1`, the outcome was “inactive”. With `COc1cc2nc(C3CCC3)n(NC(=O)C3CCCC(OC)C3)c(=O)c2cc1OC` (stereo not drawn) the outcome was “inactive”. For `CCCn1cnc2c(cnn2-c2ccc(F)cc2)c1=O`, the outcome was “inactive”. For `CCN(CC)C(=O)NC1CC2CCCC(C1)N2Cc1ccccc1` (stereo not drawn), the outcome was “inactive”. With `CCn1c(SCC(=O)c2[nH]c(C)c(C(C)=O)c2C)nnc1-c1cccs1` the outcome was “inactive”. In the case of `CCOc1ccccc1C(=O)NCC(=O)OCC(=O)c1ccc2c(c1)OCCO2`, the outcome is reported as “inactive”. `Cc1ccc(-c2noc(CCC(=O)NCCN3CCc4ccccc4C3)n2)cc1` was tested, and the outcome was “inactive”. In the case of `O=S(=O)(Nc1ccc(S(=O)(=O)N2CCOCC2)cc1)c1ccccc1`, the outcome is reported as “inactive”. In the case of `CCc1nn(C(C)C(=O)NCCc2ccc(OC)c(OC)c2)c(=O)c2cc3occc3n12` (stereo not drawn), the outcome is reported as “inactive”. In the case of `CC(C)(C)c1ccccc1OCCCCCNCCO`, the outcome is reported as “inactive”. With `O=C(C1CCN(Cc2ccc(OCc3ccccc3)cc2)CC1)N1CCCC1` the outcome was “inactive”. In the case of `CCS(=O)(=O)N1CCC(C(=O)NCC2CCCO2)CC1` (stereo not drawn), the outcome is reported as “inactive”. In the case of `Cc1onc(-c2c(Cl)cccc2Cl)c1C(=O)Nc1ccc2c(c1)OCO2`, the outcome is reported as “inactive”. In the case of `O=C(c1cc(-c2ccco2)on1)N1CCCc2ccccc21`, the outcome is reported as “inactive”. In the case of `COCc1cc(=O)[nH]c(Nc2nc(C)c3ccc(C)cc3n2)n1`, the outcome is reported as “inactive”. `CCOc1cc(C(=O)NCc2nnc(SCC(=O)OC)n2C)cc(OCC)c1OCC` was tested, and the outcome was “inactive”. `CCC(C)(C)n1nnnc1C(c1cccnc1)N1CCCc2ccccc21` (stereo not drawn) was tested, and the outcome was “inactive”. For `Cc1ccc(-n2c(CSc3nc(C)cc(C)n3)nnc2SCC(=O)NCc2ccco2)cc1`, the outcome was “inactive”. For `COc1ccccc1NC(=O)C1=C(C)NC2=C(C(=O)CCC2)C1c1ccc(C)o1` (stereo not drawn), the outcome was “inactive”. `CCCOc1ccc(-c2nnn(CC(=O)Nc3cccc(C(=O)OC)c3)n2)cc1` was tested, and the outcome was “inactive”. For `O=C(c1cccnc1)N1CCc2ccccc2C1`, the outcome was “inactive”. `c1ccc2sc(SCc3ccc(-c4nnco4)cc3)nc2c1` was tested, and the outcome was “inactive”. `CC(=O)N1CCN(c2nc3cc4c(cc3nc2NS(=O)(=O)c2ccccc2)OCCO4)CC1` was tested, and the outcome was “inactive”. For `Cc1n[nH]c(=S)n(/N=C/c2ccccn2)c1=O`, the outcome was “inactive”. In the case of `CCOC(=O)c1[nH]nc(C(=O)c2ccc(Br)cc2)c1O`, the outcome is reported as “inactive”. For `COc1ccc(CNC(=O)C2CCN(S(=O)(=O)c3cccc4cccnc34)CC2)cc1`, the outcome was “inactive”. In the case of `Cc1ccc(CN2CCN(C(=O)C3CCC3)CC2)cc1`, the outcome is reported as “inactive”. `CCOCCCNC(=O)C1CCN(S(=O)(=O)N2CC(C)CC(C)C2)CC1` (stereo not drawn) was tested, and the outcome was “inactive”. `CC1CCN(C(=O)CSc2nc3ccccc3[nH]2)CC1` was tested, and the outcome was “inactive”. With `Cc1c2c(nc3c(C(=O)NC4CCCCC4C)cnn13)CCCC2` (stereo not drawn) the outcome was “inactive”. For `CC1(C)CC(=O)C(C(C2=C(O)CC(C)(C)CC2=O)c2cccc(O)c2)C(=O)C1` (stereo not drawn), the outcome was “inactive”. For `Cn1c(SCC(=O)NCc2ccco2)nc2ccccc2c1=O`, the outcome was “inactive”. `CC(=O)N1CCC(N2CCN(c3ccccc3F)CC2)CC1` was tested, and the outcome was “inactive”. In the case of `CCS(=O)(=O)N1CCC(C(=O)NCc2ccco2)CC1`, the outcome is reported as “inactive”. `CCCN(C(=O)c1ccccc1N)c1c(C)n(C)n(-c2ccccc2)c1=O` was tested, and the outcome was “inactive”. With `CS(=O)(=O)N1CCCC(C(=O)NCc2cccs2)C1` (stereo not drawn) the outcome was “inactive”. For `N#Cc1cc2ccccc2nc1SCc1cccnc1`, the outcome was “inactive”. With `COCCn1c(C)cc2c(c1=O)C(c1ccccc1F)C(C#N)=C(N)O2` (stereo not drawn) the outcome was “inactive”. In the case of `CCC(=O)N(Cc1ccco1)c1nc(-c2ccccc2)cs1`, the outcome is reported as “inactive”. With `CCOC(=O)CNC(=O)Nc1nnc(-c2ccc(OCC)cc2)o1` the outcome was “inactive”. For `COc1cc2cc(CN(CCCO)S(=O)(=O)c3ccccc3Cl)c(=O)[nH]c2cc1OC`, the outcome was “inactive”. In the case of `COC(=O)CNc1nc(-c2ccccc2F)nc2ccccc12`, the outcome is reported as “inactive”. `O=C(COC(=O)CCc1c[nH]c(=O)[nH]1)Nc1ccccc1` was tested, and the outcome was “inactive”. For `CC(=O)c1ccc(N2CCN(c3ccc(C(F)(F)F)cn3)CC2)cc1`, the outcome was “inactive”. With `CC(C)(C)NC(=O)CSc1ncnc2c1nnn2Cc1ccccc1Cl` the outcome was “inactive”.
